Experimental data: article PMC8486872, “A rational blueprint for the design of chemically-controlled protein switches” (Nature Communications, 2021)
Values joined by “and” are separate entries in the source; they are usually repeats but may differ in a detail not shown here. Equal entries are not always repeated.

Key:
HEK293T cells [1] = assay: CCK8 cell viability assay; format: cell-based; details: for Normalization of Supplementary Figure5a (CCK8 absorbance): in % (unit assumed); for Absorbance at 450nm (CCK8 colormetric assay): Suppl Fig 5a
Experimental: A cell counting kit-8 (CCK-8) assay (Sigma) was used to measure the cytotoxicity of three drugs on HEK293T cells. 10,000 cells per well were pre-seeded into 96 well plates in 100 µl complete culture medium. The culture medium was changed into drug containing medium with drug concentrations of 0 µM (0.1% DMSO),1 µM, 5 µM and 10 µM. After 24 h drug incubation, 10 µl WST-8 solution was added to each well for 4 h incubation under standard conditions. The absorbance at 450 nm was determined by a multiplate reader (Tecan Infinite 500).
Supplementary Figure 5: Drug toxicity assessment. a) Drug effects on cell viability of HEK293T cells. HEK293T cells were added different concentrations of drugs for an incubation period of 24 hours. WST-8 was added 24 h after drug incubation and the absorbance at 450 nm was measured 4 h later. […]

HEK293T cells [2] = assay: Effect of drugs on protein production (Luciferase reporter, constitutive Gal4-Rel65); format: cell-based; details: Suppl Fig 5b
Experimental: Supplementary Figure 5: Drug toxicity assessment. […]
HEK293T cells. The HEK293T cells were transfected with the Luciferase reporter and constitutive Gal4-Rel65 expression plasmid (pCMV-Gal4-Rel65-pA). Drugs were added to the transfected cells 24 hours post-transfection, quantification of luciferase activity 24 hours after the addition of the drugs. Each bar represents the mean of three biological replicates ± s.d overlaid with a scatter dot plot of the original […]

[3] = system: JAK/STAT pathway SEAP expression in HEK293T cells; assay: AIR-GEMS ON-switch SEAP assay; details: Fig S11a; 100 nM Drug-2
Experimental: We fused the AIR components in the ectodomains of the GEMS and measured SEAP activity as a reporter for drug-triggered activation.
HEK293T cells were maintained in DMEM medium with 10% FBS (Gibco) and Pen/Strep (Thermo Fisher). Cells were maintained and split every two days at around 80% confluence. HEK293T cells were seeded 24 h before transfection, and transfected with the lipofectamine 3000 kit (Thermo Fisher). Plasmids were cotransfected according to the Table S7. For the drug OFF-switch experiments, drugs were added 12 h post transfection and incubated with cells for 24 h before the SEAP detection assay.
Representative data of cellular assays are presented as individual values and mean values (bars). n = 3 refers to biological replicates. All IC50/EC50 values of cellular assays (CDH-TF, CDH-GEMS, AIR-TF and AIR-GEMS) reported were calculated using four-parameter nonlinear regression ± s.d.
Bcl2 mutants were cloned into the AIR-GEMS

[4] = system: SEAP expression in HEK293T cells; assay: Background signal of SEAP reporter and single-construct controls; format: cell-based
Experimental: Supplementary Figure 7: Dose-dependence and reversibility characterization of CDHs in CDH- […]
transfected with SEAP reporter S132 and treated with 1 µM Drugs 12 hours post transfection.
Quantification of SEAP was performed 24 hours after drug treatment. b) Drug specificity of CDH-TFs. […]
Background signal of SEAP reporter in the absence of the CDH-GEMS system. HEK293T cells were transfected with pLS566 SEAP reporter plasmids and treated with drugs. Quantification of SEAP was performed 24 hours post drug treatment. f) SEAP activity upon transfecting single or paired […]
Quantification of SEAP activity of three CDHs with DMSO (dark color), specific (light color) and unspecific drug treatment (gray). […]
(culture medium) in panels of b, c, f and g were collected every 12 hours. Values were normalized to zero based on the SEAP expression at time 0. a, b, e, f, g) The bar charts show the mean ± s.d. of n = 3 biologically independent samples overlaid with a scatter dot plot of the original data points.

[5] = biological target: T1, LD3 in the presence of Drug-1 (Homo sapiens, UniProt Q07817, DEL45-84/F105I/R102E); assay: SPR pre-screening and competition of Drug-1 resistant Bcl-XL mutants binding LD3; details: 5 µM receptor mixed with 10 µM Drug-1
T1 construct: 6xHis (N); made in house; host or cells: E. coli BL21(DE3)
Experimental: Supplementary Figure 10: Biophysical and cellular characterization of designed Drug-1- […]
a) Pre-screening of Drug-1 resistant Bcl-XL mutants by SPR. 5 µM of Bcl-XL and five mutants were mixed with 10 µM of Drug-1 and injected over the LD3 immobilized chip to analyse the binding response. […]
dilutions of Drug-1 were pre-mixed with 4 µM LD3 and injected over iBcl-XL_v3 immobilized chip to collect the response. c) Dissociation constant measurement of iBcl-XL_v3 and LD3. Sensorgrams are in black dashed curves and the fitted curves in solid red lines. Kd was using a 1:1 binding model. d) […]
normalized to the positive control (DMSO group). […]

mdm2 = mdm2 (Homo sapiens, UniProt Q00987); set-up: method as in PMID 26768531; details: read-out: reported binding affinity to mdm2; cited from earlier work
Chain of mdm2 (Q00987 26-109 limits assumed): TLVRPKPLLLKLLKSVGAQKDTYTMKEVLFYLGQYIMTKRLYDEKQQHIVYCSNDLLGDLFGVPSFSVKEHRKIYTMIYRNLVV

T1 sequence (Q07817 with tags, fused parts or gaps DEL45-84/R102E/F105I limits assumed): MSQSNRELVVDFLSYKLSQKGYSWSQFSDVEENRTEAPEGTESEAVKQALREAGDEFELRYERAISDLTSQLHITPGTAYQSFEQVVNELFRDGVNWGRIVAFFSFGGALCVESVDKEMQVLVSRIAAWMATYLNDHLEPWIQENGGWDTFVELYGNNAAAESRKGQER

| Compound | Normalization of Supplementary Figure5a (CCK8 absorbance) (HEK293T cells [1]; 1 µM) | Normalization of Supplementary Figure5a (CCK8 absorbance) (HEK293T cells [1]; 5 µM) | Normalization of Supplementary Figure5a (CCK8 absorbance) (HEK293T cells [1]; 10 µM) | Absorbance at 450nm (CCK8 colormetric assay) (HEK293T cells [1]; 1 µM) | Absorbance at 450nm (CCK8 colormetric assay) (HEK293T cells [1]; 5 µM) | Absorbance at 450nm (CCK8 colormetric assay) (HEK293T cells [1]; 10 µM) | Luciferase production (luminescence) (HEK293T cells [2]; 1 µM) | Luciferase production (luminescence) (HEK293T cells [2]; 5 µM) | Luciferase production (luminescence) (HEK293T cells [2]; 10 µM) | further results |
| --- | --- | --- | --- | --- | --- | --- | --- | --- | --- | --- |
| CN(C)CC#Cc1ccc(OCCCc2sc(N3CCc4cccc(C(=O)Nc5nc6ccccc6s5)c4C3)nc2C(=O)O)c(F)c1 [Drug1] | 107.788 and 102.052 and 84.2322 | 106.001 and 108.808 and 85.1912 | 101.677 and 96.2978 and 81.5907 | 1.2364 and 1.1706 and 0.9662 | 1.2159 and 1.2481 and 0.9772 | 1.1663 and 1.1046 and 0.9359 | 298584 and 267400 and 264776 | 259902 and 193284 and 231257 | 268448 and 250247 and 248473 | – |
| CC1(C)CCC(CN2CCN(c3ccc(C(=O)NS(=O)(=O)c4ccc(NCC5CCOCC5)c([N+](=O)[O-])c4)c(Oc4cnc5[nH]ccc5c4)c3)CC2)=C(c2ccc(Cl)cc2)C1 [Drug2] | 91.0979 and 90.3939 and 94.3325 | 94.2973 and 98.0561 and 96.7732 | 95.7875 and 97.7823 and 95.6546 | 2.3291 and 2.3111 and 2.4118 | 2.4109 and 2.507 and 2.4742 | 2.449 and 2.5 and 2.4456 | 239858 and 221880 and 230049 | 235551 and 211876 and 214947 | 249510 and 226877 and 232289 | – |
| Bcl2 | – | – | – | – | – | – | – | – | – | Reporter signal, 100 nM Drug-2 [3]: 0.7857 and 0.8309 and 0.7087; Reporter signal, single constructs vs pair ([4]; Suppl Fig 7f, CDH2): 12.2479 and 10.8467 and 9.94; Reporter signal, single constructs vs pair ([4]; Suppl Fig 7g (so in the source), CDH2): 12.2479 and 10.8467 and 9.94 |
| Bcl-XL: wildtype drug receptor protein of CDH-1 | – | – | – | – | – | – | – | – | – | inhibition by Drug-1 of binding to LD3 immobilized chip [5]: complete inhibition; Reporter signal, single constructs vs pair ([4]; Suppl Fig 7f, CDH1): 17.1033 and 16.0472 and 16.2645; Reporter signal, single constructs vs pair ([4]; Suppl Fig 7g (so in the source), CDH1): 17.1033 and 16.0472 and 16.2645 |
| stapled p53 peptide: stapled p53 peptide (PDB 5afg) used as input peptide motif (LTFAEYWAQLAS) | – | – | – | – | – | – | – | – | – | Kd (mdm2): 12 ± 3 nM |
